Source: patent US10118935B2, “Melampomagnolide B dimers” (priority 2014, dated 2018)
Like-named read-outs stand apart in the source and are kept apart here.

Legend:
RPMI-8226 [1] = test system: RPMI-8226
NCI-H460 [2] = test system: NCI-H460
HCT-116 [3] = test system: HCT-116
SNB-75 [4] = test system: SNB-75
A498 [5] = test system: A498
CAKI-1 [6] = test system: CAKI-1
CCRF-CEM = assay: NCI 60 cell line five dose, Leukemia
RPMI-8226 [7] = assay: NCI 60 cell line five dose, Leukemia
UACC-257 = assay: NCI 60 cell line five dose, Melanoma
SF-539 = assay: NCI 60 cell line five dose, CNS Cancer
SNB-75 [8] = assay: NCI 60 cell line five dose, CNS Cancer
HCT-116 [9] = assay: NCI 60 cell line five dose, Colon Cancer
A498 [10] = assay: NCI 60 cell line five dose, Renal Cancer
CAKI-1 [11] = assay: NCI 60 cell line five dose, Renal Cancer
OVCAR-5 = assay: NCI 60 cell line five dose, Ovarian Cancer
PC-3 = assay: NCI 60 cell line five dose, Prostate Cancer
NCI-H460 [12] = assay: NCI 60 cell line five dose, Non-Small Cell Lung Cancer
IGROV1 = assay: NCI 60 cell line five dose, Ovarian Cancer; assay type: cell-based, human

C=C1C(=O)O[C@H]2[C@H]1CC/C(COC(=O)CCC(=O)NCCCCCCCCNC(=O)CCC(=O)OC/C1=C/CC[C@@]3(C)O[C@H]3[C@H]3OC(=O)C(=C)[C@@H]3CC1)=C\CC[C@@]1(C)O[C@@H]21 [JVM 2-87, bis(((1aR,7aS,10aS,10bS,E)-1a-Methyl-8-methylene-9-oxo-1a,2,3,6,7,7a,8,9,10a,1b-decahydrooxireno[2′,3′:9,10]cyclodeca[1,2-b]furan-5-yl)methyl)4,4′-(octane-1,8-diylbis(azanediyl))bis(4-oxobutanoate)]
CC50 (K-562): > 100 µM
CC50 (MOLT-4): > 100 µM
CC50 (RPMI-8226 [1]): > 100 µM
CC50 (SR): > 100 µM
CC50 (A549/ATCC): 89.4 µM
CC50 (NCI-H226): 15.7 µM
CC50 (NCI-H460 [2]): 66.2 µM
CC50 (NCI-H522): 6.36 µM
CC50 (HCC-2998): 63.6 µM
CC50 (HCT-116 [3]): 5.41 µM
CC50 (HT29): 5.92 µM
CC50 (KM12): 53.4 µM
CC50 (SW-620): 7.2 µM
CC50 (SF-268): 42.4 µM
CC50 (SNB-75 [4]): 26.9 µM
CC50 (LOX IMVI): 5.56 µM
CC50 (MALME-3M): 8 µM
CC50 (M14): 8.02 µM
CC50 (SK-MEL-2): 9.38 µM
CC50 (SK-MEL-28): 6.32 µM
CC50 (OVCAR-4): 9.38 µM
CC50 (SK-OV-3): 47.9 µM
CC50 (786-0): 6.67 µM
CC50 (A498 [5]): 49.6 µM
CC50 (CAKI-1 [6]): 80.3 µM
CC50 (SN12C): 53.8 µM
CC50 (MDA-MB-231/ATCC): 9.88 µM
CC50 (BT-549): 5.12 µM
GI50 (CCRF-CEM): 0.32 µM
TGI (CCRF-CEM): 1.48 µM
GI50 (RPMI-8226 [7]): 1.67 µM
TGI (RPMI-8226 [7]): 5.70 µM
GI50 (UACC-257): 1.76 µM
TGI (UACC-257): 4.48 µM
GI50 (SF-539): 2.43 µM
TGI (SF-539): 5.76 µM
GI50 (SNB-75 [8]): 2.02 µM
TGI (SNB-75 [8]): 7.25 µM
GI50 (HCT-116 [9]): 1.54 µM
TGI (HCT-116 [9]): 2.88 µM
GI50 (A498 [10]): 6.72 µM
TGI (A498 [10]): 20.8 µM
GI50 (CAKI-1 [11]): 12.7 µM
TGI (CAKI-1 [11]): 32.0 µM
GI50 (OVCAR-5): 1.82 µM
TGI (OVCAR-5): 3.64 µM
GI50 (PC-3): 3.64 µM
TGI (PC-3): 13.7 µM
CC50 (PC-3; read-out: LC50): 40.7 µM
GI50 (NCI-H460 [12]): 5 µM
TGI (NCI-H460 [12]): 19.9 µM

C=C1C(=O)O[C@H]2[C@H]1CC/C(COC(=O)NCCCCCCCCNC(=O)OC/C1=C/CC[C@@]3(C)O[C@H]3[C@H]3OC(=O)C(=C)[C@@H]3CC1)=C\CC[C@@]1(C)O[C@@H]21 [JVM 3-62, bis(((1aR,7aS, 10aS, 10bS, E)-1a-Methyl-8-methylene-9-oxo-1a,2,3,6,7,7a,8,9,10a,10b-decahydrooxireno[2′,3′:9,10]cyclodeca[1,2-b]furan-5-yl)methyl)octane-1,8-diyldicarbamate]
Percent Growth (IGROV1; Log10 Concentration −4.0): −71%
Percent Growth (IGROV1; Log10 Concentration −5.0): −71%
Percent Growth (IGROV1; Log10 Concentration −6.0): 61%
Percent Growth (IGROV1; Log10 Concentration −7.0): 102%
Percent Growth (IGROV1; Log10 Concentration −8.0): 105%
GI50 (IGROV1; molar): 1.01 µM
TGI (IGROV1; molar): 2.61E−6
Percent Growth (CCRF-CEM; Log10 Concentration −4.0): −44%
Percent Growth (CCRF-CEM; Log10 Concentration −5.0): −45%
Percent Growth (CCRF-CEM; Log10 Concentration −6.0): −8%
Percent Growth (CCRF-CEM; Log10 Concentration −7.0): 89%
Percent Growth (CCRF-CEM; Log10 Concentration −8.0): 99%
GI50 (CCRF-CEM; molar): 0.255 µM
CC50 (CCRF-CEM; read-out: LC50, molar): > 100 µM
Percent Growth (RPMI-8226 [7]; Log10 Concentration −4.0): −38%
Percent Growth (RPMI-8226 [7]; Log10 Concentration −5.0): −45%
Percent Growth (RPMI-8226 [7]; Log10 Concentration −6.0): −13%
Percent Growth (RPMI-8226 [7]; Log10 Concentration −7.0): 92%
Percent Growth (RPMI-8226 [7]; Log10 Concentration −8.0): 98%
GI50 (RPMI-8226 [7]; molar): 0.25 µM
TGI (RPMI-8226 [7]; molar): 7.45E−7
CC50 (RPMI-8226 [7]; read-out: LC50, molar): > 100 µM
Percent Growth (UACC-257; Log10 Concentration −4.0): −55%
Percent Growth (UACC-257; Log10 Concentration −5.0): −57%
Percent Growth (UACC-257; Log10 Concentration −6.0): 47%
Percent Growth (UACC-257; Log10 Concentration −7.0): 89%
Percent Growth (UACC-257; Log10 Concentration −8.0): 97%
GI50 (UACC-257; molar): 0.848 µM
TGI (UACC-257; molar): 2.82E−6
CC50 (UACC-257; read-out: LC50, molar): 8.51 µM
Percent Growth (SF-539; Log10 Concentration −4.0): −83%
Percent Growth (SF-539; Log10 Concentration −5.0): −91%
Percent Growth (SF-539; Log10 Concentration −6.0): −27%
Percent Growth (SF-539; Log10 Concentration −7.0): 95%
Percent Growth (SF-539; Log10 Concentration −8.0): 89%
GI50 (SF-539; molar): 0.235 µM
TGI (SF-539; molar): 5.99E−7
CC50 (SF-539; read-out: LC50, molar): 2.26 µM
Percent Growth (SNB-75 [8]; Log10 Concentration −4.0): −100%
Percent Growth (SNB-75 [8]; Log10 Concentration −5.0): −51%
Percent Growth (SNB-75 [8]; Log10 Concentration −6.0): 61%
Percent Growth (SNB-75 [8]; Log10 Concentration −7.0): 78%
Percent Growth (SNB-75 [8]; Log10 Concentration −8.0): 72%
GI50 (SNB-75 [8]; molar): 1.25 µM
CC50 (SNB-75 [8]; read-out: LC50, molar): 9.84 µM
Percent Growth (HCT-116 [9]; Log10 Concentration −4.0): −86%
Percent Growth (HCT-116 [9]; Log10 Concentration −5.0): −92%
Percent Growth (HCT-116 [9]; Log10 Concentration −6.0): −62%
Percent Growth (HCT-116 [9]; Log10 Concentration −7.0): 97%
Percent Growth (HCT-116 [9]; Log10 Concentration −8.0): 98%
GI50 (HCT-116 [9]; molar): 0.195 µM
TGI (HCT-116 [9]; molar): 4.07E−7
CC50 (HCT-116 [9]; read-out: LC50, molar): 0.837 µM
Percent Growth (A498 [10]; Log10 Concentration −4.0): −83%
Percent Growth (A498 [10]; Log10 Concentration −5.0): −91%
Percent Growth (A498 [10]; Log10 Concentration −6.0): 91%
Percent Growth (A498 [10]; Log10 Concentration −7.0): 104%
Percent Growth (A498 [10]; Log10 Concentration −8.0): 94%
GI50 (A498 [10]; molar): 1.69 µM
TGI (A498 [10]; molar): 3.14E−6
CC50 (A498 [10]; read-out: LC50, molar): 5.83 µM
Percent Growth (CAKI-1 [11]; Log10 Concentration −4.0): −99%
Percent Growth (CAKI-1 [11]; Log10 Concentration −5.0): −93%
Percent Growth (CAKI-1 [11]; Log10 Concentration −6.0): 41%
Percent Growth (CAKI-1 [11]; Log10 Concentration −7.0): 92%
Percent Growth (CAKI-1 [11]; Log10 Concentration −8.0): 94%
GI50 (CAKI-1 [11]; molar): 0.557 µM
CC50 (CAKI-1 [11]; read-out: LC50, molar): 4.79 µM
Percent Growth (OVCAR-5; Log10 Concentration −4.0): −77%
Percent Growth (OVCAR-5; Log10 Concentration −5.0): −80%
Percent Growth (OVCAR-5; Log10 Concentration −6.0): −4%
Percent Growth (OVCAR-5; Log10 Concentration −7.0): 91%
Percent Growth (OVCAR-5; Log10 Concentration −8.0): 92%
GI50 (OVCAR-5; molar): 0.269 µM
TGI (OVCAR-5; molar): 9.12E−7
CC50 (OVCAR-5; read-out: LC50, molar): 4.04 µM
Percent Growth (PC-3; Log10 Concentration −4.0): −91%
Percent Growth (PC-3; Log10 Concentration −5.0): −78%
Percent Growth (PC-3; Log10 Concentration −6.0): 21%
Percent Growth (PC-3; Log10 Concentration −7.0): 91%
Percent Growth (PC-3; Log10 Concentration −8.0): 91%
GI50 (PC-3; molar): 0.385 µM
TGI (PC-3; molar): 1.63E−6
CC50 (PC-3; read-out: LC50, molar): 5.2 µM
Percent Growth (NCI-H460 [12]; Log10 Concentration −4.0): −64%
Percent Growth (NCI-H460 [12]; Log10 Concentration −5.0): −56%
Percent Growth (NCI-H460 [12]; Log10 Concentration −6.0): 84%
Percent Growth (NCI-H460 [12]; Log10 Concentration −7.0): 102%
Percent Growth (NCI-H460 [12]; Log10 Concentration −8.0): 104%
GI50 (NCI-H460 [12]; molar): 1.75 µM
TGI (NCI-H460 [12]; molar): 3.98E−6
CC50 (NCI-H460 [12]; read-out: LC50, molar): 9.02 µM
